The source made the active and inactive calls. No cut-off for these calls is given here.
Legend:
[1] = tested on: KB; experiment: Cytotoxicity against human KB cells; format: functional, cell-based
[2] = tested on: P388; experiment: Cytotoxicity against mouse P388 cells; format: functional, cell-based

Compound	Activity [1]	Activity [2]
CC[C@H]1C[C@H]2C[C@@]3(C(=O)OC)c4[nH]c5ccccc5c4CCN(C2=O)[C@@H]13	inactive	inactive
CC[C@H]1C[C@@H]2CN3CC[C@]4(O)C(=Nc5ccc(OC)cc54)[C@](C(=O)OC)(C2)[C@H]13	inactive	inactive
CC[C@H]1C[C@@H]2CN3CC[C@]4(O)C(=Nc5ccccc54)[C@](C(=O)OC)(C2)[C@H]13	inactive	inactive
COC(=O)[C@@]12C[C@@H]3C[C@H]([C@H](C)O)[C@@H]1N(CC[C@]1(O)C2=Nc2ccccc21)C3	inactive	inactive
COC(=O)[C@@]12C[C@@H]3C[C@H]([C@H](C)O)[C@@H]1N(CC[C@]1(O)C2=Nc2ccc(OC)cc21)C3	inactive	inactive
